The data set can be described thus: Solubility of tin ions in polyol solutions with SnF2 at various pH (visual appearance). It counts as physicochemical. The following applies: for Appearance of polyol solution with SnF2, pH 2-4 / Appearance of polyol solution with SnF2, pH 4-6 / Appearance of polyol solution with SnF2, pH 6-8 / Appearance of polyol solution with SnF2, pH 8-10: aqueous polyol solution + 0.45 g SnF2; for Appearance of polyol solution with SnF2, pH 2-4 / Appearance of polyol solution with SnF2, pH 4-6 / Appearance of polyol solution with SnF2, pH 6-8: cloudy = insoluble tin complexes formed; for Appearance of polyol solution with SnF2, pH 8-10: cloudy = Sn(OH)2 formed; for Appearance of polyol/stannous fluoride solution at a pH of greater than 7: aqueous polyol/stannous fluoride solution, pH greater than 7, cloudy = Sn(OH)2 formation not prevented. The method, then: A 30% (w/w) solution was prepared for each polyol was prepared using the appropriate amount of the pure polyol and deionized water. Next, 46 g of the 30% (w/w) polyol solution was placed in a 250 mL glass beaker with a stirring bar on top of a magnetic stirring apparatus. 21 g of deionized water was added to the glass beaker and the magnetic stirring apparatus was started to commence stirring of the solution. A pH electrode was connected to a pH meter (VWR Scientific, Model 9100, Radnor, Pa.) and the pH electrode (ThermoFisher Scientific, Orion 8165BNWP, Waltham, Mass.) was placed in the stirring polyol solution.
0.45 grams of a tin ion source, such as stannous fluoride, was added to the stirring polyol solution. The pH was recorded once the tin ion source was completely added. The pH of the solution was increased by dropwise addition of a 33% (w/w) solution of NaOH.
0.45 grams of a tin ion source, such as stannous fluoride, was added to the stirring polyol solution. The pH was recorded once the tin ion source was completely added. The pH of the solution was decreased by dropwise addition of a 33% (w/w) solution of HCl.
A solution that appeared cloudy indicated the formation of insoluble tin complexes. At a pH of greater than 7, a cloudy solution indicated the formation of Sn(OH)2. FIG. 1-4 illustrates TABLE 2 by showing the appearance of each solution described in TABLE 2.

With `OC[C@@H](O)[C@@H](O)CO` [Erythritol (4 Carbon), Erythritol], the “Appearance of polyol solution with SnF2, pH 2-4” value (“Appearance … pH 2-4” below) was “Clear”; the “Appearance of polyol solution with SnF2, pH 4-6” value (“Appearance … pH 4-6” below) is on record as “Cloudy”; the “Appearance of polyol solution with SnF2, pH 6-8” value (“Appearance … pH 6-8” below) is listed as “Cloudy”; the “Appearance of polyol solution with SnF2, pH 8-10” value (“Appearance … pH 8-10” below) is recorded as “Cloudy”. Moreover, the “Appearance of polyol/stannous fluoride solution at a pH of greater than 7” value is given as “cloudy”.
For the compound `OCC(O)CO` [Glycerin (3 Carbon), Glycerin], the “Appearance … pH 2-4” value is recorded as “Clear”; the “Appearance … pH 4-6” value was “Clear”; the “Appearance … pH 6-8” value was “Cloudy”; the “Appearance … pH 8-10” value is reported as “Cloudy”. Also, the “Appearance of polyol/stannous fluoride solution at a pH of greater than 7” value is “cloudy”.
Regarding `OC[C@@H](O)[C@@H](O)[C@H](O)[C@@H](O)CO` [Sorbitol (6 Carbon), Sorbitol], the “Appearance … pH 2-4” value is recorded as “Clear”; the “Appearance … pH 4-6” value is “Cloudy”; the “Appearance … pH 6-8” value was “Cloudy”; the “Appearance … pH 8-10” value was “Clear”. Moreover, where the note is “listed as sorbitol”, the “Appearance … pH 2-4” value is recorded as “clear”; the “Appearance … pH 4-6” value was “cloudy”; the “Appearance … pH 6-8” value was “cloudy”; the “Appearance … pH 8-10” value is “clear”.
For `OC[C@@H](O)[C@H](O)[C@@H](O)CO` [Xylitol (5 Carbon), Xylitol], the “Appearance … pH 2-4” value is listed as “Clear”; the “Appearance … pH 4-6” value is “Cloudy”; the “Appearance … pH 6-8” value was “Cloudy”; the “Appearance … pH 8-10” value is given as “Clear”. In addition, for the setting “listed as xylitol”, the “Appearance … pH 2-4” value is on record as “clear”; the “Appearance … pH 4-6” value is listed as “cloudy”; the “Appearance … pH 6-8” value is on record as “cloudy”; the “Appearance … pH 8-10” value was “clear”.

Values taken from patent publication US11839671B2, “Oral care compositions comprising tin ions” (The Procter & Gamble Company, priority 2019, dated 2023).
